Laboratory results reported in PubChem BioAssay (NCI).
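All cell lines were grown in 96-well plates and treated with compound for 48 hours. GI50 marks 50% less growth. TGI denotes the concentration required for complete inhibition of growth.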

Experiments:
Assay in all cases: NCI tumour cell line growth inhibition, 48 h
A498 renal = system: A498 renal
A549 NSCLC = system: A549 NSCLC
HCC-2998 colon = system: HCC-2998 colon
M14 melanoma = system: M14 melanoma
MALME-3M melanoma = system: MALME-3M melanoma
SK-MEL-28 melanoma = system: SK-MEL-28 melanoma
SK-OV-3 ovarian = system: SK-OV-3 ovarian
HOP-92 NSCLC = system: HOP-92 NSCLC
MCF7 breast = system: MCF7 breast
MDA-MB-231 breast = system: MDA-MB-231 breast

| Structure (SMILES) | TGI (A498 renal) [µM] | TGI (A549 NSCLC) [µM] | TGI (HCC-2998 colon) [µM] | TGI (M14 melanoma) [µM] | TGI (MALME-3M melanoma) [µM] | TGI (SK-MEL-28 melanoma) [µM] | TGI (SK-OV-3 ovarian) [µM] | GI50 (A498 renal) [µM] | GI50 (HCC-2998 colon) [µM] | GI50 (HOP-92 NSCLC) [µM] | TGI (HOP-92 NSCLC) [µM] | GI50 (M14 melanoma) [µM] | GI50 (MALME-3M melanoma) [µM] | GI50 (MCF7 breast) [µM] | TGI (MCF7 breast) [µM] | GI50 (MDA-MB-231 breast) [µM] | TGI (MDA-MB-231 breast) [µM] | GI50 (SK-MEL-28 melanoma) [µM] | GI50 (SK-OV-3 ovarian) [µM] | GI50 (A549 NSCLC) [µM] |
| --- | --- | --- | --- | --- | --- | --- | --- | --- | --- | --- | --- | --- | --- | --- | --- | --- | --- | --- | --- | --- |
| C(=C\c1csnn1)/c1cccnc1 | > 100 | > 100 | > 100 | > 100 | > 100 | > 100 | > 100 | – | – | – | – | – | – | – | – | – | – | – | – | – |
| COc1ccc2c(c1)c(C1(c3cn(C)c4ccc(OC)cc34)C(=O)Nc3ccc(F)cc31)cn2C | 75.3 | – | > 100 | 68.8 | 89.5 | 25.5 | > 100 | 13.6 | 4.53 | 3.84 | 58.7 | 4.19 | 6.52 | 3.61 | > 100 | 2.89 | 18.6 | 5.3 | 12.9 | – |
| N#Cc1ccccc1C#C/C=C\C#Cc1ccc(OCCCNC(=O)c2cc3ccccc3[nH]2)cc1 | 36.5 | > 100 | > 100 | > 100 | 34.8 | > 100 | 54.5 | 16.1 | 74.9 | – | – | 21.8 | 14 | 33.4 | > 100 | 13.3 | 28.1 | 32 | 19.3 | 22.9 |
| O=C(O)C1C2CC3C(OC(=O)C31)C2Br (configuration not stated) | > 100 | > 100 | – | > 100 | > 100 | > 100 | > 100 | – | – | – | > 100 | – | – | – | > 100 | – | > 100 | – | – | – |
| CC1=CC(C)(C)N=C2SC(c3ccc(Cl)cc3)=NN12 | 83.6 | > 100 | > 100 | > 100 | 75.6 | > 100 | > 100 | – | – | – | 61.5 | – | – | – | – | – | – | – | – | – |
| O=c1cc(Cl)nc[nH]1 | > 100 | > 100 | > 100 | > 100 | > 100 | > 100 | > 100 | – | – | – | – | – | – | – | – | – | – | – | – | – |
| CCOC(=O)/N=C(\N)SCc1ccccc1 | > 100 | > 100 | > 100 | > 100 | > 100 | > 100 | > 100 | – | – | – | > 100 | – | – | – | – | – | – | – | – | – |
| COc1cc(-c2[nH]ccc2Cl)oc1C1=C2N=C3C=C2C(C(C)C)C1CCCCCCCC3 (configuration not stated) | 5.31 | 2.88 | 1.77 | 1.51 | 2.49 | 2.84 | 3.77 | – | – | – | 3.59 | – | – | – | – | – | 1.56 | – | – | – |
| O=C(CCC(=O)Nc1ccc(Cl)cc1)CC(=O)c1ccc(F)cc1 | – | > 100 | > 100 | > 100 | > 100 | > 100 | > 100 | – | – | – | > 100 | – | – | – | – | – | – | – | – | – |
| O=C(Nc1c(-c2nc3ccccc3[nH]2)sc(=S)n1-c1ccccc1)c1ccccc1 | > 100 | > 100 | > 100 | > 100 | > 100 | > 100 | > 100 | – | – | – | – | – | – | – | – | – | – | – | – | – |
| O=Cc1ccc(-c2ccc(-c3ccc(C=O)s3)o2)s1 | 0.732 | > 100 | 51.5 | > 100 | > 100 | > 100 | > 100 | – | – | – | > 100 | – | – | – | – | – | > 100 | – | – | – |
